In patent publication US9856247B2, “4-methyl-dihydropyrimidines for the treatment and prophylaxis of Hepatitis B virus infection” (Hoffmann-La Roche Inc., priority 2012, dated 2018):

Assays:
in vitro = conditions: human
Procedure: The transfected cells were selected with G418 (also known as Genticin, purchased from Invitrogen). […] These cells were maintained in Dulbecco's modified Eagle's medium (DMEM)-F12 medium (Invitrogen) supplemented with 10% fetal bovine serum, 100 U/ml penicillin, and 100 μg/ml streptomycin, 0.5 mg/ml of G418 and 1 μg/ml tetracycline.
To determine if the anti-HBV effect of compound is due to cytotoxicity, HepDE 19 cells (5×10^3 cells/well) were seeded into 96-well plates and compounds were treated as described above. […] Four hours after incubation at 37° C., the absorbance at wavelengths of 450 nm and 630 nm (OD450 and OD630) was recorded by a plate reader.

HBV DNA = assay: Anti-HBV activity in HepDE19 cells (HBV DNA dot-blot); format: cell-based, Hepatitis B virus (HBV); conditions: Hepatitis B virus, 120 h; HepDE19 cells, five days after compound treatment, concentration that inhibited HBV DNA by 50%; read-out: HepDe19 EC50
From the text: Cells and culture conditions: HepDE19 (Haitao Guo et al, Journal of Virology, 81, November 2007, 12472-12484; Richeng Mao et al, Journal of Virology, 85, January 2011, 1048-1057) cells were derived from HepG2 (ATCC, American Type Culture Collection) cells through transfection with pTet-off plasmid (Clontech) that expresses the Tet-responsive transcriptional activator and pTREHBVDE plasmid in which HBV pgRNA expression is controlled by a CMV early promoter with a tetracycline-responsive element. The transfected cells were selected with G418 (also known as Genticin, purchased from Invitrogen). […] These cells were maintained in Dulbecco's modified Eagle's medium (DMEM)-F12 medium (Invitrogen) supplemented with 10% fetal bovine serum, 100 U/ml penicillin, and 100 μg/ml streptomycin, 0.5 mg/ml of G418 and 1 μg/ml tetracycline.
Anti-HBV activity and cytotoxicity: HepDE19 cells were seeded into 96-well plates (3×10^4 cells/well) with tetracycline-free medium and incubated overnight at 37° C. The test or control compounds were serially half-log diluted with medium and added into the plates (the final concentration of DMSO kept at 0.5% in each well). Five days after compound treatment, cells were washed with PBS and lysed with 50 mM Tris-1 mM EDTA-0.2% CA-630 (pH 8.0) at 37° C. for 20 min. After centrifugation to remove nuclei and other debris, the supernatant was transferred into a new plate and incubated with 2M NaOH/20×SSC (3M NaCl, 0.3M Sodium citrate, pH7.0) at rt for 30 min. Then the samples were transferred to nylon membrane and neutralized with 1M Tris (pH7.4)/2M NaCl. The presence of HBV DNA was detected by dot-blot with DIG-labeled HBV specific DNA probe and quantified by dot density. The compound concentrations that inhibited HBV DNA by 50% (EC50) were determined (See Table 1).

COC(=O)C1=C(CN2CC(F)(F)C[C@H]2C(=O)O)NC(c2nc(C)cs2)=N[C@@]1(C)c1ccc(F)cc1 [Example 32, (S)-6-((S)-2-carboxy-4,4-difluoro-pyrrolidin-1-ylmethyl)-4-(4-fluoro-phenyl)-4-methyl-2-(4-methyl-thiazol-2-yl)-1,4-dihydro-pyrimidine-5-carboxylic acid methyl ester]
CC50 at 5 days (in vitro): 75 µM
EC50 (HBV DNA): 0.13 µM

CC1(c2ccc(F)c(F)c2)N=C(c2nccs2)NC(CN2CCOC[C@H]2C(=O)O)=C1C#N (stereo partly drawn) [Example 22, (S)-4-[5-Cyano-6-(3,4-difluoro-phenyl)-6-methyl-2-thiazol-2-yl-3,6-dihydro-pyrimidin-4-ylmethyl]-morpholine-3-carboxylic acid]
CC50 at 5 days (in vitro): > 100 µM
EC50 (HBV DNA): 20.4 µM

CCOC(=O)C1=C(CN2CC(F)(F)C[C@H]2C(=O)O)NC(c2nccs2)=N[C@@]1(C)c1ccc(F)c(F)c1 [Example 24, (S)-6-((S)-2-carboxy-4,4-difluoro-pyrrolidin-1-ylmethyl)-4-(3,4-difluoro-phenyl)-4-methyl-2-thiazol-2-yl-1,4-dihydro-pyrimidine-5-carboxylic acid ethyl ester]
CC50 at 5 days (in vitro): ≥ 100 µM
EC50 (HBV DNA): 0.8 µM

COC(=O)C1=C(CN2CC(F)(F)C[C@H]2C(=O)OC)NC(c2ccc(F)cn2)=NC1(C)c1ccc(F)cc1 (stereo in doubt) [Example 17, 6-(4,4-Difluoro-2-methoxycarbonyl-pyrrolidin-1-ylmethyl)-4-(4-fluoro-phenyl)-2-(5-fluoro-pyridin-2-yl)-4-methyl-1,4-dihydro-pyrimidine-5-carboxylic acid methyl ester]
CC50 at 5 days (in vitro): 90 µM
EC50 (HBV DNA): 0.59 µM

CCOC(=O)C1=C(CN2CCOC[C@H]2C(=O)O)NC(c2nccs2)=NC1(C)c1ccc(F)c(F)c1 (stereo partly drawn) [Example 29, (S)-4-[6-(3,4-difluoro-phenyl)-5-ethoxycarbonyl-6-methyl-2-thiazol-2-yl-3,6-dihydro-pyrimidin-4-ylmethyl]-morpholine-3-carboxylic acid]
CC50 at 5 days (in vitro): ≥ 100 µM
EC50 (HBV DNA): 3.98 µM

COC(=O)C1=C(CN2CC(F)(F)C[C@H]2C(=O)O)NC(c2cc(F)cs2)=N[C@@]1(C)c1ccc(F)cc1 [Example 43, (S)-6-((S)-2-carboxy-4,4-difluoro-pyrrolidin-1-ylmethyl)-4-(4-fluoro-phenyl)-2-(4-fluoro-thiophen-2-yl)-4-methyl-1,4-dihydro-pyrimidine-5-carboxylic acid methyl ester]
CC50 at 5 days (in vitro): ≥ 100 µM
EC50 (HBV DNA): 0.131 µM

COC(=O)C1=C(CN2CCOC[C@H]2C(=O)O)NC(c2ccc(F)cn2)=NC1(C)c1ccc(F)cc1 (stereo partly drawn) [Example 10, 4-[6-(4-Fluoro-phenyl)-2-(5-fluoro-pyridin-2-yl)-5-methoxycarbonyl-6-methyl-3,6-dihydro-pyrimidin-4-ylmethyl]-morpholine-(S)-3-carboxylic acid]
CC50 at 5 days (in vitro): > 100 µM
EC50 (HBV DNA): 7.04 µM

COC(=O)C1=C(CN2CC(F)(F)CCC2C(=O)O)NC(c2nccs2)=N[C@@]1(C)c1ccc(F)cc1 (stereo partly drawn) [Example 25, (S)-6-(2-carboxy-5,5-difluoro-piperidin-1-ylmethyl)-4-(4-fluoro-phenyl)-4-methyl-2-thiazol-2-yl-1,4-dihydro-pyrimidine-5-carboxylic acid methyl ester]
CC50 at 5 days (in vitro): ≥ 100 µM
EC50 (HBV DNA): 1.09 µM

COC(=O)C1=C(CN2CC(F)(F)C[C@@]2(C)C(=O)O)NC(c2nccs2)=N[C@@]1(C)c1ccc(F)cc1 [Example 20, (S)-6-((S)-2-Carboxy-4,4-difluoro-2-methyl-pyrrolidin-1-ylmethyl)-4-(4-fluoro-phenyl)-4-methyl-2-thiazol-2-yl-1,4-dihydro-pyrimidine-5-carboxylic acid methyl ester]
CC50 at 5 days (in vitro): > 100 µM
EC50 (HBV DNA): 2.8 µM

CNC(=O)[C@@H]1CC(F)(F)CN1CC1=C(C(=O)OC)C(C)(c2ccc(F)cc2)N=C(c2nccs2)N1 (stereo partly drawn) [Example 50, 6-((S)-4,4-difluoro-2-methylcarbamoyl-pyrrolidin-1-ylmethyl)-4-(4-fluoro-phenyl)-4-methyl-2-thiazol-2-yl-1,4-dihydro-pyrimidine-5-carboxylic acid methyl ester]
CC50 at 5 days (in vitro): ≥ 100 µM
EC50 (HBV DNA): 0.606 µM

COC(=O)C1=C(CN2CC(F)(F)C[C@H]2c2nnn[nH]2)NC(c2nccs2)=N[C@@]1(C)c1ccc(F)cc1 [Example 58, (S)-6-[(S)-4,4-difluoro-2-(1H-tetrazol-5-yl)-pyrrolidin-1-ylmethyl]-4-(4-fluoro-phenyl)-4-methyl-2-thiazol-2-yl-1,4-dihydro-pyrimidine-5-carboxylic acid methyl ester]
CC50 at 5 days (in vitro): ≥ 100 µM
EC50 (HBV DNA): 1.02 µM

CCOC(=O)C1=C(CN2CC(F)(F)C[C@H]2C(=O)O)NC(c2nccs2)=N[C@]1(C)c1ccc(F)c(F)c1 [Example 28, (R)-6-((S)-2-carboxy-4,4-difluoro-pyrrolidin-1-ylmethyl)-4-(3,4-difluoro-phenyl)-4-methyl-2-thiazol-2-yl-1,4-dihydro-pyrimidine-5-carboxylic acid ethyl ester]
CC50 at 5 days (in vitro): ≥ 100 µM
EC50 (HBV DNA): 7.48 µM

COC(=O)C1=C(CN2CC(F)(F)C[C@H]2C(=O)O)NC(c2nccs2)=N[C@@]1(C)c1ccc(F)c(F)c1 [Example 14, (S)-6-((S)-2-Carboxy-4,4-difluoro-pyrrolidin-1-ylmethyl)-4-(3,4-difluoro-phenyl)-4-methyl-2-thiazol-2-yl-1,4-dihydro-pyrimidine-5-carboxylic acid methyl ester]
CC50 at 5 days (in vitro): > 100 µM
EC50 (HBV DNA): 0.2 µM

COC(=O)C1=C(CN2CC(F)(F)C[C@H]2C(=O)O)NC(c2nccn2C)=N[C@@]1(C)c1ccc(F)cc1 [Example 27, (S)-6-((S)-2-carboxy-4,4-difluoro-pyrrolidin-1-ylmethyl)-4-(4-fluoro-phenyl)-4-methyl-2-(1-methyl-1H-imidazol-2-yl)-1,4-dihydro-pyrimidine-5-carboxylic acid methyl ester]
CC50 at 5 days (in vitro): 55.8 µM
EC50 (HBV DNA): 2.72 µM

COC(=O)C1=C(CN2CC(F)(F)C[C@H]2CO)NC(c2nccs2)=N[C@@]1(C)c1ccc(F)cc1 [Example 55, (S)-6-((S)-4,4-difluoro-2-hydroxymethyl-pyrrolidin-1-ylmethyl)-4-(4-fluoro-phenyl)-4-methyl-2-thiazol-2-yl-1,4-dihydro-pyrimidine-5-carboxylic acid methyl ester]
CC50 at 5 days (in vitro): ≥ 100 µM
EC50 (HBV DNA): 0.067 µM

COC(=O)C1=C(CN2CC(F)(F)C[C@H]2C(=O)O)NC(c2ncc(C)s2)=NC1(C)c1ccc(F)cc1 (stereo partly drawn) [Example 19, 6-((S)-2-Carboxy-4,4-difluoro-pyrrolidin-1-ylmethyl)-4-(4-fluoro-phenyl)-4-methyl-2-(5-methyl-thiazol-2-yl)-1,4-dihydro-pyrimidine-5-carboxylic acid methyl ester]
CC50 at 5 days (in vitro): > 100 µM
EC50 (HBV DNA): 16.7 µM

COC(=O)C1=C(CN2CC(F)(F)C[C@H]2C(=O)O)NC(c2ncc(C)s2)=N[C@@]1(C)c1ccc(F)cc1 [Example 37, (S)-6-((S)-2-carboxy-4,4-difluoro-pyrrolidin-1-ylmethyl)-4-(4-fluoro-phenyl)-4-methyl-2-(5-methyl-thiazol-2-yl)-1,4-dihydro-pyrimidine-5-carboxylic acid methyl ester]
CC50 at 5 days (in vitro): 85 µM
EC50 (HBV DNA): 0.47 µM

COC(=O)C1=C(CN2CCOC[C@@H]2C(=O)O)NC(c2ccc(F)cn2)=NC1(C)c1ccc(F)cc1 (stereo partly drawn) [Example 9, 4-[6-(4-Fluoro-phenyl)-2-(5-fluoro-pyridin-2-yl)-5-methoxycarbonyl-6-methyl-3,6-dihydro-pyrimidin-4-ylmethyl]-morpholine-(R)-3-carboxylic acid]
CC50 at 5 days (in vitro): > 100 µM
EC50 (HBV DNA): 4.18 µM

COC(=O)C1=C(CN2CC(F)(F)C[C@H]2C(=O)O)NC(c2sccc2F)=N[C@]1(C)c1ccc(F)cc1 [Example 42, (R)-6-((S)-2-carboxy-4,4-difluoro-pyrrolidin-1-ylmethyl)-4-(4-fluoro-phenyl)-2-(3-fluoro-thiophen-2-yl)-4-methyl-1,4-dihydro-pyrimidine-5-carboxylic acid methyl ester]
CC50 at 5 days (in vitro): ≥ 100 µM
EC50 (HBV DNA): 6.81 µM

COC(=O)C1=C(CN2CC(F)(F)C[C@H]2C(=O)NS(C)(=O)=O)NC(c2nccs2)=N[C@@]1(C)c1ccc(F)cc1 [Example 51, (S)-6-((S)-4,4-difluoro-2-methanesulfonylaminocarbonyl-pyrrolidin-1-ylmethyl)-4-(4-fluoro-phenyl)-4-methyl-2-thiazol-2-yl-1,4-dihydro-pyrimidine-5-carboxylic acid methyl ester]
CC50 at 5 days (in vitro): 90 µM
EC50 (HBV DNA): 18.2 µM
